Read-outs that look alike come from different tables or passages of the source.
Tests used:
hMPV-GFP virus = experiment: microbe, parasite or virus in culture; assay type: cell-based, Human Metapneumovirus; conditions: VERO cells, hMPV-GFP MOI=1.25, 48 hrs, GFP-expressing cells counted
How it was run: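 VERO cells infected with GFP-expressing hMPV at MOI 1.25 and exposed to compound in 10-point 3-fold dilutions (typical final 40,300–2 nM) for 48 h at 37 °C. GFP-positive cells counted by imaging; same-well CellTiter-Glo for cytotoxicity. IC50 and CC50 from 4-parameter logistic fits.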

RSV-A2-GFP virus = experiment: microbe, parasite or virus in culture; assay type: cell-based, Human Respiratory Syncytial Virus; conditions: Calu-1 cells, RSV-A2-GFP MOI=1.2, 96 hrs, GFP-expressing cells counted
How it was run: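 Assay-ready frozen Calu-1 cells (20,000 cells/mL) were infected with RSV-A2-GFP at MOI 1.2 in DMEM with 2% FBS and exposed to a 10-point 3-fold compound dilution for 96 h at 37 °C. GFP-positive cells were counted by imaging, with same-well CellTiter-Glo for cytotoxicity. IC50 and CC50 came from 4-parameter logistic fits.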

[1] = Vero, 48 h, read-out: RSV EC50, Table II Summary of Activities for hMPV
[2] = human respiratory syncytial virus, Calu-1, 96 h, read-out: RSV EC50, Table I Summary of Activities for RSV
[3] = Table II Summary of Activities for hMPV, read-out: RSV EC50
[4] = Table I Summary of Activities for RSV, read-out: RSV EC50

Row | Structure (SMILES) | EC50 (hMPV-GFP virus; [1]) [nM] | EC50 (RSV-A2-GFP virus; [2]) [nM] | EC50 (hMPV-GFP virus; [3]) [nM] | EC50 (RSV-A2-GFP virus; [4]) [nM]
1 | CCn1nc(-c2cscn2)cc1C(=O)N1C[C@@H]2[C@H](C1)[C@H]2Oc1cc(C(C)(C)N)cc(-c2ccc(F)cc2)n1 [Example 19, ((1R,5S,6s)-6-((4-(2-aminopropan-2-yl)-6-(4-fluorophenyl)pyridin-2-yl)oxy)-3-azabicyclo[3.1.0]hexan-3-yl)(1-ethyl-3-(thiazol-4-yl)-1H-pyrazol-5-yl)methanone] | 10 to 100 | < 10 | – | –
2 | Cn1nc(-c2ncsc2F)cc1C(=O)N1C[C@@H]2[C@H](C1)[C@H]2Oc1cc(C(C)(C)N)cc(-c2ccc(F)cc2)n1 [Example 20, ((1R,5S,6s)-6-((4-(2-aminopropan-2-yl)-6-(4-fluorophenyl)pyridin-2-yl)oxy)-3-azabicyclo[3.1.0]hexan-3-yl)(3-(5-fluorothiazol-4-yl)-1-methyl-1H-pyrazol-5-yl)methanone] | 10 to 100 | < 10 | – | –
3 | Cn1nc(-c2ccon2)cc1C(=O)N1C[C@@H]2[C@H](C1)[C@H]2Oc1cc(C(C)(C)N)cc(-c2ccc(F)cc2)n1 [Example 21, ((1R,5S,6s)-6-((4-(2-aminopropan-2-yl)-6-(4-fluorophenyl)pyridin-2-yl)oxy)-3-azabicyclo[3.1.0]hexan-3-yl)(3-(isoxazol-3-yl)-1-methyl-1H-pyrazol-5-yl)methanone] | > 100 | < 10 | – | –
4 | Cc1cnc(-c2cc(C(=O)N3C[C@@H]4[C@H](C3)[C@H]4Oc3cc(C(C)(C)N)cc(-c4ccc(F)cc4)n3)n(C)n2)o1 [Example 22, ((1R,5S,6s)-6-((4-(2-aminopropan-2-yl)-6-(4-fluorophenyl)pyridin-2-yl)oxy)-3-azabicyclo[3.1.0]hexan-3-yl)(1-methyl-3-(5-methyloxazol-2-yl)-1H-pyrazol-5-yl)methanone] | – | – | 10 to 100 | < 10
5 | Cn1nc(-c2nccs2)cc1C(=O)N1C[C@@H]2[C@H](C1)[C@H]2Oc1cc(C(C)(C)N)cc(-c2ccc(F)cc2)n1 [Example 23, ((1R,5S,6s)-6-((4-(2-aminopropan-2-yl)-6-(4-fluorophenyl)pyridin-2-yl)oxy)-3-azabicyclo[3.1.0]hexan-3-yl)(1-methyl-3-(thiazol-2-yl)-1H-pyrazol-5-yl)methanone] | – | – | > 100 | < 10
6 | Cc1nc(-c2cc(C(=O)N3C[C@@H]4[C@H](C3)[C@H]4Oc3cc(C(C)(C)N)cc(-c4ccc(F)cc4)n3)n(C)n2)cs1 [Example 24, ((1R,5S,6s)-6-((4-(2-aminopropan-2-yl)-6-(4-fluorophenyl)pyridin-2-yl)oxy)-3-azabicyclo[3.1.0]hexan-3-yl)(1-methyl-3-(2-methylthiazol-4-yl)-1H-pyrazol-5-yl)methanone] | – | – | > 100 | < 10
7 | Cn1nc(-c2cscn2)c(F)c1C(=O)N1C[C@@H]2[C@H](C1)[C@H]2Oc1cc(C(C)(C)N)cc(-c2ccc(F)cc2)n1 [Example 25, ((1R,5S,6s)-6-((4-(2-aminopropan-2-yl)-6-(4-fluorophenyl)pyridin-2-yl)oxy)-3-azabicyclo[3.1.0]hexan-3-yl)(4-fluoro-1-methyl-3-(thiazol-4-yl)-1H-pyrazol-5-yl)methanone] | 10 to 100 | < 10 | – | –
8 | Cn1nc(-c2ncco2)c(F)c1C(=O)N1C[C@@H]2[C@H](C1)[C@H]2Oc1cc(C(C)(C)N)cc(-c2ccc(F)cc2)n1 [Example 26, ((1R,5S,6s)-6-((4-(2-aminopropan-2-yl)-6-(4-fluorophenyl)pyridin-2-yl)oxy)-3-azabicyclo[3.1.0]hexan-3-yl)(4-fluoro-1-methyl-3-(oxazol-2-yl)-1H-pyrazol-5-yl)methanone] | – | – | > 100 | < 10
9 | CC(C)(N)c1cc(O[C@H]2[C@@H]3CN(C(=O)c4nc(-c5cscn5)ns4)C[C@@H]32)nc(-c2ccc(F)cc2)c1 [Example 27, ((1R,5S,6s)-6-((4-(2-aminopropan-2-yl)-6-(4-fluorophenyl)pyridin-2-yl)oxy)-3-azabicyclo[3.1.0]hexan-3-yl)(3-(thiazol-4-yl)-1,2,4-thiadiazol-5-yl)methanone] | – | – | > 100 | 10 to 100
10 | Cc1nn(-c2cscn2)cc1C(=O)N1C[C@@H]2[C@H](C1)[C@H]2Oc1cc(C(C)(C)N)cc(-c2ccc(F)cc2)n1 [Example 28, ((1R,5S,6s)-6-((4-(2-aminopropan-2-yl)-6-(4-fluorophenyl)pyridin-2-yl)oxy)-3-azabicyclo[3.1.0]hexan-3-yl)(3-methyl-1-(thiazol-4-yl)-1H-pyrazol-4-yl)methanone] | – | – | > 100 | < 10
11 | CC(C)(N)c1cc(O[C@H]2[C@@H]3CN(C(=O)c4cc(-c5cscn5)ns4)C[C@@H]32)nc(-c2ccc(F)cc2)c1 [Example 29, ((1R,5S,6s)-6-((4-(2-aminopropan-2-yl)-6-(4-fluorophenyl)pyridin-2-yl)oxy)-3-azabicyclo[3.1.0]hexan-3-yl)(3-(thiazol-4-yl)isothiazol-5-yl)methanone] | – | – | > 100 | < 10
12 | Cn1nc(-c2cscn2)nc1C(=O)N1C[C@@H]2[C@H](C1)[C@H]2Oc1cc(C(C)(C)N)cc(-c2ccc(F)cc2)n1 [Example 30, ((1R,5S,6s)-6-((4-(2-aminopropan-2-yl)-6-(4-fluorophenyl)pyridin-2-yl)oxy)-3-azabicyclo[3.1.0]hexan-3-yl)(1-methyl-3-(thiazol-4-yl)-1H-1,2,4-triazol-5-yl)methanone] | – | – | > 100 | < 10
13 | Cc1nc(-c2ncco2)sc1C(=O)N1C[C@@H]2[C@H](C1)[C@H]2Oc1cc(C(C)(C)N)cc(-c2ccc(F)cc2F)n1 [Example 31, ((1R,5S,6s)-6-((4-(2-aminopropan-2-yl)-6-(2,4-difluorophenyl)pyridin-2-yl)oxy)-3-azabicyclo[3.1.0]hexan-3-yl)(4-methyl-2-(oxazol-2-yl)thiazol-5-yl)] | 10 to 100 | < 10 | – | –
14 | Cc1nc(-c2ccon2)sc1C(=O)N1C[C@@H]2[C@H](C1)[C@H]2Oc1cc(C(C)(C)N)cc(-c2ccc(F)cc2F)n1 [Example 32, ((1R,5S,6s)-6-((4-(2-aminopropan-2-yl)-6-(2,4-difluorophenyl)pyridin-2-yl)oxy)-3-azabicyclo[3.1.0]hexan-3-yl)(2-(isoxazol-3-yl)-4-methylthiazol-5-yl)methanone] | – | – | > 100 | < 10
15 | Cc1nc(-c2cscn2)sc1C(=O)N1C[C@@H]2[C@H](C1)[C@H]2Oc1cc(C(C)(C)N)cc(-c2ccc(F)cc2F)n1 [Example 33, ((1R,5S,6s)-6-((4-(2-aminopropan-2-yl)-6-(2,4-difluorophenyl)pyridin-2-yl)oxy)-3-azabicyclo[3.1.0]hexan-3-yl)(4-methyl-[2,4′-bithiazol]-5-yl)methanone] | – | – | > 100 | < 10
16 | CC(C)(N)c1cc(O[C@H]2[C@@H]3CN(C(=O)c4sc(-c5cscn5)nc4C4CC4)C[C@@H]32)nc(-c2ccc(F)cc2F)c1 [Example 34, ((1R,5S,6s)-6-((4-(2-aminopropan-2-yl)-6-(2,4-difluorophenyl)pyridin-2-yl)oxy)-3-azabicyclo[3.1.0]hexan-3-yl)(4-cyclopropyl-[2,4′-bithiazol]-5-yl)methanone] | – | – | 10 to 100 | < 10
17 | Cn1nc(-c2ncco2)cc1C(=O)N1C[C@@H]2[C@H](C1)[C@H]2Oc1cc(C(C)(C)N)cc(-c2ccc3c(c2)CC3(F)F)n1 [Example 35, ((1R,5S,6s)-6-((4-(2-aminopropan-2-yl)-6-(7,7-difluorobicyclo[4.2.0]octa-1(6),2,4-trien-3-yl)pyridin-2-yl)oxy)-3-azabicyclo[3.1.0]hexan-3-yl)(1-methyl-3-(oxazol-2-yl)-1H-pyrazol-5-yl)methanone] | – | – | > 100 | < 10
18 | Cn1nc(-c2ccon2)cc1C(=O)N1C[C@@H]2[C@H](C1)[C@H]2Oc1cc(C(C)(C)N)cc(-c2ccc3c(c2)CC3(F)F)n1 [Example 36, ((1R,5S,6s)-6-((4-(2-aminopropan-2-yl)-6-(7,7-difluorobicyclo[4.2.0]octa-1(6),2,4-trien-3-yl)pyridin-2-yl)oxy)-3-azabicyclo[3.1.0]hexan-3-yl)(3-(isoxazol-3-yl)-1-methyl-1H-pyrazol-5-yl)methanone] | – | – | > 100 | < 10
19 | Cc1nc(-c2ncco2)sc1C(=O)N1C[C@@H]2[C@H](C1)[C@H]2Oc1cc(C(C)(C)N)cc(-n2cc(C3CC3)cn2)n1 [Example 37, ((1R,5S,6s)-6-((4-(2-aminopropan-2-yl)-6-(4-cyclopropyl-1H-pyrazol-1-yl)pyridin-2-yl)oxy)-3-azabicyclo[3.1.0]hexan-3-yl)(4-methyl-2-(oxazol-2-yl)thiazol-5-yl)methanone] | – | – | > 100 | < 10
20 | Cn1nc(-c2cscn2)cc1C(=O)N1C[C@@H]2[C@H](C1)[C@H]2Oc1cc(C(C)(C)N)cc(-n2cc(C3CC3)cn2)n1 [Example 38, ((1R,5S,6s)-6-((4-(2-aminopropan-2-yl)-6-(4-cyclopropyl-1H-pyrazol-1-yl)pyridin-2-yl)oxy)-3-azabicyclo[3.1.0]hexan-3-yl)(1-methyl-3-(thiazol-4-yl)-1H-pyrazol-5-yl)methanone] | – | – | > 100 | < 10
